Measured values as given in patent US11351178B2, “Selective HDAC6 inhibitors” (ITALFARMACO S.P.A., priority 2017, dated 2022).
Where two headings read alike, the source gives them in different places.

Columns and labels:
Stability in rat plasma = format: in vitro ADME; details: after 4 hours, 37° C.
How it was run: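 Compounds incubated at 37° C in rat or human plasma at 50 μM (UV/HPLC) or 1 or 2 μM (LC-MS/MS) for 0–4 h. Reaction stopped with acidified acetonitrile on ice; percent remaining versus initial amount and plasma half-life calculated.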

recombinant human HDAC6 = target: T1, recombinant human HDAC6 (Homo sapiens, UniProt Q9UBN7); assay: Enzymatic screening on recombinant human HDAC6; format: biochemical; details: read-out: HDAC6 IC50
T1 sequence (Q9UBN7 1-1215): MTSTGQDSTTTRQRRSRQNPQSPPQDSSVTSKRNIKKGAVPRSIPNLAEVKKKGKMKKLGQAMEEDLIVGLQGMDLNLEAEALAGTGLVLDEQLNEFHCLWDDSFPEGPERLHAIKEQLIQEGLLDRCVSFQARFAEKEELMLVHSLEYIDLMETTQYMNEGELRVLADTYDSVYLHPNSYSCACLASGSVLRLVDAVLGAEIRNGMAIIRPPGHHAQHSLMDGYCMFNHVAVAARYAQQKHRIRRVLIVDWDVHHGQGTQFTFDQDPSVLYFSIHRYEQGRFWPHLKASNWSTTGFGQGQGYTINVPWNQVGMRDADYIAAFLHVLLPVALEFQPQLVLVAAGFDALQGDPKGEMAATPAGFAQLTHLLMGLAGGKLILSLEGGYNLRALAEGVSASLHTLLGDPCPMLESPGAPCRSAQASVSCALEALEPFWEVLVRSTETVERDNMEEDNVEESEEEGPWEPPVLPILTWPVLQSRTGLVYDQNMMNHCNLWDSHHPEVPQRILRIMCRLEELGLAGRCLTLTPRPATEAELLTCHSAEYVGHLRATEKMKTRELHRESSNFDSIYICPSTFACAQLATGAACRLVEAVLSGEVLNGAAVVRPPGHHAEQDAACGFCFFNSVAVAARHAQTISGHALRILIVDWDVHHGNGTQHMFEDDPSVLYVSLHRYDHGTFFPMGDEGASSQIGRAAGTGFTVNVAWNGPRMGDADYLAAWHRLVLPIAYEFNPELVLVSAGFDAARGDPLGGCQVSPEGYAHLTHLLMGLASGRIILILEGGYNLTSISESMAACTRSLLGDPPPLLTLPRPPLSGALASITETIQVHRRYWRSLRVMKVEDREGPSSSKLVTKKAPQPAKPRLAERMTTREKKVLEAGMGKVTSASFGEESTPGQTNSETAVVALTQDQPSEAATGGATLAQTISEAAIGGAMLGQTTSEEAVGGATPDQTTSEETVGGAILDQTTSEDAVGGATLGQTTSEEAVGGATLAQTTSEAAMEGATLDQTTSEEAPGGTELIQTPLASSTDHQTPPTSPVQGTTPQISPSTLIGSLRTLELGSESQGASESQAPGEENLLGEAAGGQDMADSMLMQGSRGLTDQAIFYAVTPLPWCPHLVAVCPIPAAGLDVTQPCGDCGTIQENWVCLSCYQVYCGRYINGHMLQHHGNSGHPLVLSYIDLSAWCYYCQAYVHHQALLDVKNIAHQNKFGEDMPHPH
How it was run: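 Deacetylase activity of recombinant human isoforms is measured with FLUOR DE LYS, FLUOR DE LYS-Green or trifluoroacetyl-L-lysine substrates, supplied at 2× in 25 mM Tris-HCl, pH 8, 130 mM NaCl, 0.05% Tween-20, 10% glycerol. Both the enzyme-compound preincubation, of isoform-specific length, and the substrate reaction run at 30 °C.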

[1] = Stability to Phase I metabolism in rat S9 liver fraction; format: in vitro ADME; details: after 90 min, 37° C.
How it was run: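 Phase I stability in human and rat hepatic S9 at 37 °C, sampled up to 90 min. Samples were stopped with acidified acetonitrile on ice, then quantified by HPLC-UV or LC-MS/MS.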

COc1ccc(C(=O)N[C@@H](Cc2cscn2)c2nc(Cc3ccc(C(=O)NO)cc3)no2)cc1OC [comp. 1, (S)—N-(1-(3-(4-(hydroxycarbamoyl)benzyl)-1,2,4-oxadiazol-5-yl)-2-(thiazol-4-yl)ethyl)-3,4-dimethoxybenzamide]
residual percentage in rat plasma (Stability in rat plasma): 86% | IC50 (recombinant human HDAC6; Table 2): 81 nM | IC50 (recombinant human HDAC6; Table 3): 81 nM | residual percentage in rat S9 fraction [1]: 70%

Cn1c(Sc2c(F)cc(C(=O)NO)cc2F)nnc1-c1cccc2ccccc12 [comp. 2, 3,5-difluoro-N-hydroxy-4-((4-methyl-5-(naphthalen-1-yl)-4H-1,2,4-triazol-3-yl)thio)benzamide]
residual percentage in rat plasma (Stability in rat plasma): 79% | IC50 (recombinant human HDAC6; Table 2): 16 nM | IC50 (recombinant human HDAC6; Table 3): 16 nM | residual percentage in rat S9 fraction [1]: 1%

O=C(NO)c1cc(F)c(Cn2nnc(-c3ccccn3)n2)c(F)c1 [comp. 6, 3,5-difluoro-N-hydroxy-4-((5-(pyridin-2-yl)-2H-tetrazol-2-yl)methyl)benzamide]
residual percentage in rat plasma (Stability in rat plasma): 87% | IC50 (recombinant human HDAC6; Table 2): 7 nM | IC50 (recombinant human HDAC6; Table 3): 7 nM | residual percentage in rat S9 fraction [1]: 96.6%

O=C(NO)c1ccc(Cn2nnnc2-c2cccs2)cc1 [comp. 8, N-hydroxy-4-((5-(thiophen-2-yl)-1H-tetrazol-1-yl)methyl)benzamide]
residual percentage in rat plasma (Stability in rat plasma): 62% | residual percentage in rat S9 fraction [1]: 82%

Cn1c(Sc2ccc(C(=O)NO)cc2)nnc1-c1cccs1 [comp. 10, N-hydroxy-4-((4-methyl-5-(thiophen-2-yl)-4H-1,2,4-triazol-3-yl)thio)benzamide]
residual percentage in rat plasma (Stability in rat plasma): 86% | IC50 (recombinant human HDAC6; Table 2): 8 nM | IC50 (recombinant human HDAC6; Table 3): 9 nM | residual percentage in rat S9 fraction [1]: 82%

O=C(NO)c1cc(F)c(Cn2nnnc2-c2ccccn2)c(F)c1 [comp. 13, 3,5-difluoro-N-hydroxy-4-((5-(pyridin-2-yl)-1H-tetrazol-1-yl)methyl)benzamide]
residual percentage in rat plasma (Stability in rat plasma): 96.7% | IC50 (recombinant human HDAC6; Table 2): 4 nM | IC50 (recombinant human HDAC6; Table 3): 4 nM | residual percentage in rat S9 fraction [1]: 90.9%

O=C(NO)c1cc(F)c(Cn2nnnc2-c2cccs2)c(F)c1 [comp. 15, 3,5-difluoro-N-hydroxy-4-((5-(thiophen-2-yl)-1H-tetrazol-1-yl)methyl)benzamide]
residual percentage in rat plasma (Stability in rat plasma): 78% | IC50 (recombinant human HDAC6; Table 2): 19 nM | IC50 (recombinant human HDAC6; Table 3): 19 nM | residual percentage in rat S9 fraction [1]: 60%

Cn1c(Sc2c(F)cc(C(=O)NO)cc2F)nnc1-c1cccs1 [comp. 17, 3,5-difluoro-N-hydroxy-4-((4-methyl-5-(thiophen-2-yl)-4H-1,2,4-triazol-3-yl)thio)benzamide]
residual percentage in rat plasma (Stability in rat plasma): 87% | IC50 (recombinant human HDAC6; Table 2): 9 nM | IC50 (recombinant human HDAC6; Table 3): 9 nM | residual percentage in rat S9 fraction [1]: 71%

O=C(NO)c1cc(F)c(Cn2nnc(-c3ccco3)n2)c(F)c1 [comp. 19, 3,5-difluoro-4-((5-(furan-2-yl)-2H-tetrazol-2-yl)methyl)-N-hydroxybenzamide]
residual percentage in rat plasma (Stability in rat plasma): 96% | IC50 (recombinant human HDAC6; Table 2): 4 nM | IC50 (recombinant human HDAC6; Table 3): 4 nM | residual percentage in rat S9 fraction [1]: 68%

O=C(NO)c1ccc(Cn2nnc(-c3ccc(C(F)(F)F)cc3)n2)cc1 [comp. 23, 4-[[5-[4-(trifluoromethyl)phenyl]tetrazol-2-yl]methyl]benzenecarbohydroxamic acid]
residual percentage in rat plasma (Stability in rat plasma): 77% | IC50 (recombinant human HDAC6; Table 2): 11 nM | IC50 (recombinant human HDAC6; Table 3): 11 nM | residual percentage in rat S9 fraction [1]: 8%

Nn1c(Sc2ccc(C(=O)NO)cc2)nnc1-c1ccc(OC(F)F)cc1 [comp. 28, 4-[[4-amino-5-[4-(difluoromethoxy)phenyl]-1,2,4-triazol-3-yl]sulfanyl]benzenecarbohydroxamic acid]
residual percentage in rat plasma (Stability in rat plasma): 90% | IC50 (recombinant human HDAC6; Table 2): 10 nM | IC50 (recombinant human HDAC6; Table 3): 10 nM | residual percentage in rat S9 fraction [1]: 68%

O=C(NO)c1ccc(Cn2nnc(-c3ccccc3F)n2)cc1 [comp. 33, 4-[[5-(2-fluorophenyl)tetrazol-2-yl]methyl]benzenecarbohydroxamic acid]
residual percentage in rat plasma (Stability in rat plasma): 52% | IC50 (recombinant human HDAC6; Table 2): 3 nM | IC50 (recombinant human HDAC6; Table 3): 3 nM | residual percentage in rat S9 fraction [1]: 2%

O=C(NO)c1ccc(Cn2nnc(-c3cccs3)n2)cc1 [comp. 50, 4-[[5-(2-thienyl)tetrazol-2-yl]methyl]benzenecarbohydroxamic acid]
IC50 (recombinant human HDAC6; Table 2): 2 nM | IC50 (recombinant human HDAC6; Table 3): 2 nM

O=C(NO)c1ccc(Cc2nnc(-c3ccc(F)cc3F)o2)cc1 [comp. 58, 4-((5-(2,4-difluorophenyl)-1,3,4-oxadiazol-2-yl)methyl)-N-hydroxybenzamide]
residual percentage in rat plasma (Stability in rat plasma): 106% | IC50 (recombinant human HDAC6; Table 2): 6 nM | IC50 (recombinant human HDAC6; Table 3): 6 nM | residual percentage in rat S9 fraction [1]: 15%

CN(C)S(=O)(=O)c1cccc(-c2nnn(Cc3ccc(C(=O)NO)cc3)n2)c1 [comp. 59, 4-[[5-[3-(dimethylsulfamoyl)phenyl]tetrazol-2-yl]methyl]benzenecarbohydroxamic acid]
residual percentage in rat plasma (Stability in rat plasma): 53% | IC50 (recombinant human HDAC6; Table 2): 7 nM | IC50 (recombinant human HDAC6; Table 3): 7 nM | residual percentage in rat S9 fraction [1]: 8%

CCN(CC)S(=O)(=O)c1cccc(-c2nnc(Sc3ccc(C(=O)NO)cc3)n2N)c1 [comp. 61, 4-[[4-amino-5-[3-(diethylsulfamoyl)phenyl]-1,2,4-triazol-3-yl]sulfanyl]benzenecarbohydroxamic acid]
residual percentage in rat plasma (Stability in rat plasma): 71% | IC50 (recombinant human HDAC6; Table 2): 9 nM | IC50 (recombinant human HDAC6; Table 3): 9 nM | residual percentage in rat S9 fraction [1]: 49%

O=C(NO)c1cc(F)c(Cn2nnc(-c3cccs3)n2)c(F)c1 [comp. 65, 3,5-difluoro-4-[[5-(2-thienyl)tetrazol-2-yl]methyl]benzenecarbohydroxamic acid]
residual percentage in rat plasma (Stability in rat plasma): 88% | IC50 (recombinant human HDAC6; Table 2): 6 nM | IC50 (recombinant human HDAC6; Table 3): 6 nM | residual percentage in rat S9 fraction [1]: 8%

CCN(CC)S(=O)(=O)c1cccc(-c2nnc(Sc3ccc(C(=O)NO)cc3)n2C)c1 [comp. 66, 4-[[5-[3-(diethylsulfamoyl)phenyl]-4-methyl-1,2,4-triazol-3-yl]sulfanyl]benzenecarbohydroxamic acid]
residual percentage in rat plasma (Stability in rat plasma): 66% | IC50 (recombinant human HDAC6; Table 2): 6 nM | IC50 (recombinant human HDAC6; Table 3): 6 nM | residual percentage in rat S9 fraction [1]: 54%

CN(C)c1cccc(-c2nnc(Sc3ccc(C(=O)NO)cc3)n2C)c1 [comp. 77, 4-[[5-[3-(dimethylamino)phenyl]-4-methyl-1,2,4-triazol-3-yl]sulfanyl]benzenecarbohydroxamic acid]
IC50 (recombinant human HDAC6; Table 2): 17 nM | IC50 (recombinant human HDAC6; Table 3): 17 nM | residual percentage in rat S9 fraction [1]: 40%

O=C(NO)c1cc(F)c(Cn2nnc(-c3scc4c3OCCO4)n2)c(F)c1 [comp. 79, 4-[[5-(2,3-dihydrothieno[3,4-b][1,4]dioxin-5-yl)tetrazol-2-yl]methyl]-3,5-difluoro-benzenecarbohydroxamic acid]
residual percentage in rat plasma (Stability in rat plasma): 99% | IC50 (recombinant human HDAC6; Table 2): 8 nM | IC50 (recombinant human HDAC6; Table 3): 8 nM | residual percentage in rat S9 fraction [1]: 73%

CN(C)c1cccc(-c2nnc(Sc3c(F)cc(C(=O)NO)cc3F)n2C)c1 [comp. 80, 4-[[5-[3-(dimethylamino)phenyl]-4-methyl-1,2,4-triazol-3-yl]sulfanyl]-3,5-difluoro-benzenecarbohydroxamic acid]
residual percentage in rat plasma (Stability in rat plasma): 77% | IC50 (recombinant human HDAC6; Table 2): 16 nM | IC50 (recombinant human HDAC6; Table 3): 16 nM | residual percentage in rat S9 fraction [1]: 32%

Cn1c(Sc2c(F)cc(C(=O)NO)cc2F)nnc1-c1ccc(CN2CCCCCC2)cc1 [comp. 168, 4-[[5-[4-(azepan-1-ylmethyl)phenyl]-4-methyl-1,2,4-triazol-3-yl]sulfanyl]-3,5-difluoro-benzenecarbohydroxamic acid]
IC50 (recombinant human HDAC6; Table 2): 7 nM
